Data: patent US11744825B2, “Methods of treating hypersensitive cough or itching using ion channel inhibitory compounds” (AFASCI, Inc., priority 2018, dated 2023)
Several values for one entry are separate records, joined by “and”; a condition that tells them apart may be missing. Equal entries are not always repeated. Entries after “also recorded” stand apart in the source; their conditions may differ.

Legend:
[1] = molecular target: T1, hCav3.2 Channel (Homo sapiens, UniProt O95180); experiment: Recombinant hCav3.2 channel expressed in mammalian cells; type: cell-based; design: hCav3.2 Channel % Use Dep. (use dependent inhibition): concentration or dose not given beside the values
T1 construct: expressed in transfected cells
Excerpt: (§1) A representative panel of AFA/EX compounds was investigated on a variety of recombinant human ion channels expressed in mammalian cells and on native ion channels in dissociated rat dorsal root ganglion (DRG) neurons. […] Thus, this panel of compounds was next investigated on their effects on itching scratching behavior in two well-established itching models in mice.

[2] = molecular target: hCav2.2 (Homo sapiens, UniProt Q00975); experiment: Recombinant hCav2.2 channel expressed in mammalian cells; type: cell-based; conditions: for IC50: recombinant human channel
hCav2.2, sequence (Q00975 whole entry): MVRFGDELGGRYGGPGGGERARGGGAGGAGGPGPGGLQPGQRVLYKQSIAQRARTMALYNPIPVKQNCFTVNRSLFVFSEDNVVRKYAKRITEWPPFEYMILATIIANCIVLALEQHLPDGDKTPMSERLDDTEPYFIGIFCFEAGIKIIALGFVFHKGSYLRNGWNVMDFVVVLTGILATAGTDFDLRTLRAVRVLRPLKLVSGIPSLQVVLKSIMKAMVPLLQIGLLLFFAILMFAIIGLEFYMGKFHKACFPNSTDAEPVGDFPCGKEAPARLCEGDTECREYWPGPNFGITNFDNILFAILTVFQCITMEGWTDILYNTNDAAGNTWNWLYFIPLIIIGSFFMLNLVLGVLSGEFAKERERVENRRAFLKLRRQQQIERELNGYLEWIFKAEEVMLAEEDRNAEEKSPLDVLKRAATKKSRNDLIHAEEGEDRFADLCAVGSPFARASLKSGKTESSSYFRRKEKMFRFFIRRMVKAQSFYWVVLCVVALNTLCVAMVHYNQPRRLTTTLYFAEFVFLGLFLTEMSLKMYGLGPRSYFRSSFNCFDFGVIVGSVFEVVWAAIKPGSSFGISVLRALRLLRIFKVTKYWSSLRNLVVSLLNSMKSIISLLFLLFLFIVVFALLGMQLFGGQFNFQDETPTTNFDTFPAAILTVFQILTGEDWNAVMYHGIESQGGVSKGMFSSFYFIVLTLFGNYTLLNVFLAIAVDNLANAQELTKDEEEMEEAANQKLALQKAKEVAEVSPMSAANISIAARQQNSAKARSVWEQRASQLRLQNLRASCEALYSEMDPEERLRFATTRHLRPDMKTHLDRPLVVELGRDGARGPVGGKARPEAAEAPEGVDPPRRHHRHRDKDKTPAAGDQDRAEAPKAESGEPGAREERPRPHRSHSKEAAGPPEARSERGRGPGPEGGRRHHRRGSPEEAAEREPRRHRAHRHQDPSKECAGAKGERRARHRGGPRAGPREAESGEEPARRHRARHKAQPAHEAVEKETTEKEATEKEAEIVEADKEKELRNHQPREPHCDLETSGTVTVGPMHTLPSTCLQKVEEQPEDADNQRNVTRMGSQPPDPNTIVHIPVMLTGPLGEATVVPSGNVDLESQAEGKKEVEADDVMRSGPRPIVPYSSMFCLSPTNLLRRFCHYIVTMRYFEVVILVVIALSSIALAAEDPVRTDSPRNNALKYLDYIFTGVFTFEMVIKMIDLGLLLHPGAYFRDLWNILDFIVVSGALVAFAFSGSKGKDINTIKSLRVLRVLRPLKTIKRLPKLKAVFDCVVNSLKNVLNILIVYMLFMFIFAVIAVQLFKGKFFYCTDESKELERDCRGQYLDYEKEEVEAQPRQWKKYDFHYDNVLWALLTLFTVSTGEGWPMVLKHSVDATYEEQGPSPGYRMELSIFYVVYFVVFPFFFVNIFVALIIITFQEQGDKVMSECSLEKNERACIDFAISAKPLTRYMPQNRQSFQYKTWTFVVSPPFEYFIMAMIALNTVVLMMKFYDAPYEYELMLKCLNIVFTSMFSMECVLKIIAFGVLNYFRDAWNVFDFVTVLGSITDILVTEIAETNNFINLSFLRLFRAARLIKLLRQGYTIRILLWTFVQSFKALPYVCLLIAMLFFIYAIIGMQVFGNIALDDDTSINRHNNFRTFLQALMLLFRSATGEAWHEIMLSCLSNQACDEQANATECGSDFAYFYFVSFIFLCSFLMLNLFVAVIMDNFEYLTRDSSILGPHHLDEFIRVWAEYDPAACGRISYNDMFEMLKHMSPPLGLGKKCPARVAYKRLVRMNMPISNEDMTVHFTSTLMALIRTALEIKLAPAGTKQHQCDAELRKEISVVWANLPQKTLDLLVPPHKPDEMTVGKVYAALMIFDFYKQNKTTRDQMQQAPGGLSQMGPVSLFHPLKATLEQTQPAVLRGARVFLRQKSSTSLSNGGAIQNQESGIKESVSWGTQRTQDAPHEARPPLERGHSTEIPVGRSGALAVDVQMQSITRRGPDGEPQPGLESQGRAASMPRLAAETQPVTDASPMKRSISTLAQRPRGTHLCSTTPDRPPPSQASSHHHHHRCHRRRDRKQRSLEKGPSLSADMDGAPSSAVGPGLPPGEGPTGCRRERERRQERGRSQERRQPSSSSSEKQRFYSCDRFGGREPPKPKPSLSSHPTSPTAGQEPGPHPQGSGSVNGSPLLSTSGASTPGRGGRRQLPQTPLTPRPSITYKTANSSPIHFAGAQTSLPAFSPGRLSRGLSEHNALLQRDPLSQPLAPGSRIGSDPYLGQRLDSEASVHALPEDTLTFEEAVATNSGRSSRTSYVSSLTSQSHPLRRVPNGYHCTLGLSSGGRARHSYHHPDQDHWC
hCav2.2, sequence (P54284 whole entry partner): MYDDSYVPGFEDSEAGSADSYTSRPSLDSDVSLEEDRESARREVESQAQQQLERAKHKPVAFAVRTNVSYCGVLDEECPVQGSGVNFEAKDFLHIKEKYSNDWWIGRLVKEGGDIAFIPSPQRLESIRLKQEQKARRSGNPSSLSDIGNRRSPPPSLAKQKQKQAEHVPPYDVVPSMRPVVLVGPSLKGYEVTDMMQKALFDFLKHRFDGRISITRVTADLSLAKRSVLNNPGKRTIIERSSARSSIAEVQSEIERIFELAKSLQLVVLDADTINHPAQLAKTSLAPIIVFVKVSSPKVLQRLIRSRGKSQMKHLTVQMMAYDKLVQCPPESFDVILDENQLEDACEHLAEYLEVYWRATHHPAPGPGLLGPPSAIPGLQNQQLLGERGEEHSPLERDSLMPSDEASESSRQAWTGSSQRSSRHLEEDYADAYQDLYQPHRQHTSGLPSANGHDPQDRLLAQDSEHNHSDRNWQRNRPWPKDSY
hCav2.2, sequence (P54289 25-956 partner limits assumed): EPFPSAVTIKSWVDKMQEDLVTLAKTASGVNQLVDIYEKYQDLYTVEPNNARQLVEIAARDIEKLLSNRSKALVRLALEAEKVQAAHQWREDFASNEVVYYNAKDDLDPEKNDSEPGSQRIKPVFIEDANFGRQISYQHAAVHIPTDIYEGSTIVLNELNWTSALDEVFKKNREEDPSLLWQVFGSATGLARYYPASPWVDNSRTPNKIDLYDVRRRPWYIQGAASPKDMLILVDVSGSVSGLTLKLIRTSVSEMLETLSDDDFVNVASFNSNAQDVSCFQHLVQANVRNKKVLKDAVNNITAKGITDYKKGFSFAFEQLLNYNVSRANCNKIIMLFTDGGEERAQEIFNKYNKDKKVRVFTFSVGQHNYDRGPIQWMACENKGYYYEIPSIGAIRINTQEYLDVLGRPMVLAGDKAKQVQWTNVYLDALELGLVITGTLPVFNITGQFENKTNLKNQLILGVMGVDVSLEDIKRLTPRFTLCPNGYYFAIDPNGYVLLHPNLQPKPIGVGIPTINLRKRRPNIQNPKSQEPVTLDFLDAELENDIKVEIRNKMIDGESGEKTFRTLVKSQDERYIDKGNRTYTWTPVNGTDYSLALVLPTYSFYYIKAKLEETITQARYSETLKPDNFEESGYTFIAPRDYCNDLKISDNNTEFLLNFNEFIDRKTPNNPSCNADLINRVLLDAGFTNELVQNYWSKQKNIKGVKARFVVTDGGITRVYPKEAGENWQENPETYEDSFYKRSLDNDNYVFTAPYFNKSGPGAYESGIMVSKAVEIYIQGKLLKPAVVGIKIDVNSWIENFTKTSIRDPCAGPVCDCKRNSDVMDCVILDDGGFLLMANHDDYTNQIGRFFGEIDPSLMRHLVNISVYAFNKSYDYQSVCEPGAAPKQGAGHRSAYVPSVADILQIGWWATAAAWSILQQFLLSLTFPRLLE
hCav2.2, sequence (P54289 957-1103 partner limits assumed): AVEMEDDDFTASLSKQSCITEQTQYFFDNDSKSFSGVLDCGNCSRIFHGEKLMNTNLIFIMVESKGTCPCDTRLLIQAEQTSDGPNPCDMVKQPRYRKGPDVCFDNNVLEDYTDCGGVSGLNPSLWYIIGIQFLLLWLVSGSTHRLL
Excerpt: as §1

[3] = tested on: INa in rat DRG; experiment: Inhibition of INa current in dissociated rat DRG neurons; type: cell-based; conditions: for IC50: rat DRG neurons, read-out: Inhibition of Currents in rat DRG: INa IC50; for Na/T: ratio of INa IC50 to T-type IC50
Excerpt: as §1

[4] = tested on: IK in rat DRG; experiment: Inhibition of IK current in dissociated rat DRG neurons; type: cell-based; conditions: for IC50: rat DRG neurons, read-out: Inhibition of Currents in rat DRG: IK IC50; for K/T: ratio of IK IC50 to T-type IC50
Excerpt: as §1

[5] = molecular target: T2, hERG potassium (K+) channels (Homo sapiens, UniProt Q12809); experiment: hERG potassium channel inhibition; type: cell-based
T2 construct: expressed in transfected cells
T2 sequence (Q12809 whole entry): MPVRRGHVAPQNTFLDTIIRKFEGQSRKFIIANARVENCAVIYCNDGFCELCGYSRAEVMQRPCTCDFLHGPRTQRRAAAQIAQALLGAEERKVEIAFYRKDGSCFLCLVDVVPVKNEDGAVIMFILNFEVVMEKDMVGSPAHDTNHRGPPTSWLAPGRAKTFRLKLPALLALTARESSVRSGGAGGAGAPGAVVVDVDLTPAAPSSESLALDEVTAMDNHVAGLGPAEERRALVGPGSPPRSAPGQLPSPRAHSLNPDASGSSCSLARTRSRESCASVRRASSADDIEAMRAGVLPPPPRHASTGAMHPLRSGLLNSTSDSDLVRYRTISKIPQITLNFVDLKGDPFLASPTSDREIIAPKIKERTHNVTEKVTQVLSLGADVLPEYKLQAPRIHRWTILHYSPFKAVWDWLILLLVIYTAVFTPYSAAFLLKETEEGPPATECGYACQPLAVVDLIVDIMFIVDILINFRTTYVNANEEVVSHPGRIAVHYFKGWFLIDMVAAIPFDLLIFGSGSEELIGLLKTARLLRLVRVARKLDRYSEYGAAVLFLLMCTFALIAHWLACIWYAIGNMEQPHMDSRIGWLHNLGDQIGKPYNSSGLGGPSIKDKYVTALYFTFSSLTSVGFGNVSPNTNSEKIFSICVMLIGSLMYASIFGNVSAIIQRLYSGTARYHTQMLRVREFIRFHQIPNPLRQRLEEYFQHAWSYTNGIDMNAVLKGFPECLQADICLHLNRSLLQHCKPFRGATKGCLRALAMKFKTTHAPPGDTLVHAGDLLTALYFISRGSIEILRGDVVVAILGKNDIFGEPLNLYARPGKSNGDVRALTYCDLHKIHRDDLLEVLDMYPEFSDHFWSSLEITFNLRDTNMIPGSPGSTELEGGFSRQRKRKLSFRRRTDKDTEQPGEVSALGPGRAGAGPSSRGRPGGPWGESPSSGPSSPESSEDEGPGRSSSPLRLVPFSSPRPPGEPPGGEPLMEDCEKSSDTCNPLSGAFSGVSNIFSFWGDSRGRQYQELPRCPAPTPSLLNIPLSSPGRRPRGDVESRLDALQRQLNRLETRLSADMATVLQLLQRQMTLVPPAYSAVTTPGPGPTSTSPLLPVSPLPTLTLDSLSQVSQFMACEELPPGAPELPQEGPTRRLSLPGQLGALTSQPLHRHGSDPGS
Excerpt: as §1

[6] = tested on: hiPSC INa; experiment: hiPSC INa current; type: cell-based, human
[7] = molecular target: hNav1.5 (Homo sapiens, UniProt Q14524); experiment: Recombinant hNav1.5 channel expressed in mammalian cells; type: cell-based
Excerpt: as §1

[8] = molecular target: T3, T current in rat DRG (Rattus norvegicus, UniProt Q9EQ60); experiment: Inhibition of T current in dissociated rat DRG neurons; type: cell-based; conditions: read-out: Inhibition of Currents in rat DRG: T IC50
T3 construct: native ion channels in dissociated rat dorsal root ganglion (DRG) neurons; from tissue; host or cells: dissociated rat dorsal root ganglion neurons
Excerpt: as §1

[9] = tested on: citric acid-induced cough; experiment: Citric acid-induced cough in naive, conscious guinea pigs; type: in vivo, guinea pig; conditions: for reduction of the number of cough events: guinea pig
Protocol: Guinea pigs (male, 280 g body weight, Hartley Crl:HA, Charles River) were maintained in temperature 21±2° C., humidity 55±10%, 12 hours on-12 hours off light cycle, with food and water ad libitum for at least 1 week before testing. Cough was induced with citric acid aerosol inhalation and cough assessment by human manual score (Gallico, Borghi et al. 1994). Individual animals were placed in a 4 L plexiglas observation chambers continuously filled with 17.5% citric acid aerosol. Animal cough counts were recorded for 5 min. Coughs can be recognized on the basis of sound associated with a rapid inspiration followed by a rapid expiration. Only the animal with cough counts >=10 times/5 min was selected for experiment. The selected animal was then randomized divided into 5 groups, n=8/group. Five days after screening test, the representative AFA-compound, EX-17 at 0, 3, 10 and 30 mg/kg were administered 30 minutes while the benchmark dextromethorphan hydrobromide (60 mg/kg, p.o.) 60 minutes prior to the citric acid inhalation, based on their PK profiles. […] The latency to the first cough has been used as an additional parameter to evaluate antitussive property.
Using the same test protocol, three more representative EX-compounds EX-128, -130 and -132 (each 30 mg/kg, p.o.) or vehicle were tested by orally administering 30 minutes while dextromethorphan hydrobromide (60 mg/kg, p.o.) 60 minutes prior to the citric acid inhalation, based on their PK profiles. […] The latencies to the first cough were increased with three compounds and the benchmark (FIG. 2B).

[10] = tested on: chloroquine-induced itching; experiment: Chloroquine-induced itching (neck model of itch) in mice; type: in vivo, mouse; conditions: 30 mg/kg i.p., 30 min before pruritogen
Protocol: (§2) Neck model of itch was employed. Mice (C57BL/6, male, 3-4 months old) were shaved at the nape of the neck 2-3 days before experiments. On the day of behavioral testing mice were individually placed in small plastic chambers (12 cm L×9.5 W×12 H) that inserted into an ordinary homecage at least 30 min for habituation and recorded baseline of behavior using a video camera and a piezoelectric floor sensor operated by a validated homecage behavioral monitory system, SmartCage, which can monitor multiple mouse scratching behaviors simultaneously. Treatment with an individual test article (10 representative AFA-compounds, each at 30 mg/kg) or vehicle (0.5% hydroxyl propyl cellulose aqueous solution containing 2% DMSO) were intraperitoneally (i.p.) injected 30 min prior to itching induction. Mice were given an intradermal injection of 50 μl of a pruritogen, chloroquine or histamine into the nape of the neck. Immediately after the injection, mice were returned to their chambers and were continually recorded by the piezoelectric floor sensor for 30 min. Human manual scoring of itching scratch behavior in real-time and confirmed by video and/or piezoelectric recordings offline. The itch behavior was quantified by counting the number of scratches in a blinded to the treatment manner. A scratch was counted when a mouse lifted its hindpaw to scratch the shaved region and returned the paw to the floor or to the mouth for licking. The piezoelectric signals with a larger and regular waveform distinguished from normal homecage activity were analyzed off-line to objectively quantifying scratch episodes and durations.

[11] = tested on: histamine-induced itching; experiment: Histamine-induced itching (neck model of itch) in mice; type: in vivo, mouse; conditions: 30 mg/kg i.p., 30 min before pruritogen
Protocol: as §2

[12] = molecular target: hCav1.2 (Homo sapiens, UniProt Q13936); experiment: Recombinant hCav1.2 channel expressed in mammalian cells; type: cell-based
Excerpt: as §1

[13] = tested on: T-type Ca2+ current; conditions: Avdonin et al., 2000; cited from earlier work
[14] = 30 mg/kg p.o., 30 min before citric acid
[15] = 30 mg/kg p.o., vs vehicle-treated control

| SMILES | IC50 [1] | IC50 [2] | IC50 [3] | Na/T [3] | IC50 [4] | K/T [4] | hERG % at 1 μM [5] | hCav3.2 Channel % Use Dep. (use dependent inhibition) [1] | IC50 [6] | IC50 [7] | IC50 [8] | IC50 [5] | reduction of the number of cough events [9, 14] | latency to the first cough [9, 15] | inhibition of chloroquine-induced itching scratching behavior [10] | inhibition of histamine-induced itching scratching behavior [11] | other results |
| --- | --- | --- | --- | --- | --- | --- | --- | --- | --- | --- | --- | --- | --- | --- | --- | --- | --- |
| C[C@H]1CN(S(=O)(=O)c2ccc(C(F)(F)F)cc2)CCN1C(=O)c1ccc2cccnc2c1 [AFA-353] | 10.4 µM | 8.87 µM | > 100 µM | >10 | > 100 µM | >10 | 23% at | – | – | – | – | – | – | – | – | – | – |
| CC(C)(C)NC(=O)CN1CCC2(CC1)CC2NC(=O)c1cc(F)cc(Cl)c1 (stereo not shown) [AFA-279] | 0.113 µM | > 10 µM | > 100 µM | >1115 | > 100 µM | >1115 | – | 21.3% | 83.5 µM | 76.4 µM | 0.19 µM | 6.7 µM | 39.1% | trend of increasing the latency, but not reaching significant difference | did not produce anti-itching effects | did not produce anti-itching effects | – |
| CC(C)(C)NC(=O)CN1CCC2(CC1)CC2NC(=O)c1cc(F)cc(C(F)(F)F)c1 (stereo not shown) [AFA-281] | 0.179 µM | > 30 µM | > 100 µM | >557 | > 100 µM | >557 | – | 13.9% | 31.4 µM | > 100 µM | 0.6 µM | 8 µM | 33% | trend of increasing the latency, but not reaching significant difference | potent and equal efficacy | potent and equal efficacy | inhibition of chloroquine-induced itching scratching behavior ([10]; listed as EX-130): effective; inhibition of histamine-induced itching scratching behavior ([11]; listed as EX-130): effective |
| CC(C)(C)CCN1CCC2(CC1)CC2N(CC1CC1)C(=O)c1cc(Cl)cc(Cl)c1 (stereo not shown) [AFA-206] | 0.067 µM | – | 20.3 µM | 303 | 6.8 µM | 102 | 50% at | 8.2% | – | – | – | – | – | – | – | preferentially inhibited histamine-induced itching | – |
| CC(C)(C)NC(=O)CN1CCC2(CC1)CC2NC(=O)c1ccc(Cl)cc1F (stereo not shown) [EX-17] | – | – | – | – | – | – | – | – | – | – | – | – | 36.8% | reached significance; also recorded: significant increases | – | – | reduction of the number of cough events ([9]; 3 mg/kg p.o., 30 min before citric acid): 7.2%; reduction of the number of cough events ([9]; 10 mg/kg p.o., 30 min before citric acid): 23.3%; latency to the first cough ([9]; p.o., EX compounds 3-30 mg/kg, dextromethorphan 60 mg/kg): increases in the latencies of the first cough in a dose-dependent manner |
| COc1ccc2c(c1)[C@]13CCCC[C@@H]1[C@H](C2)N(C)CC3 [dextromethorphan, reference compound] | – | – | – | – | – | – | – | – | – | – | – | – | – | – | – | – | reduction of the number of cough events ([9]; 60 mg/kg p.o., 60 min before citric acid): 40.0% and 42.6%; latency to the first cough ([9]; 60 mg/kg p.o., vs vehicle-treated control): significant increases; also recorded: trend of increasing the latency, but not reaching significant difference; latency to the first cough ([9]; 60 mg/kg p.o., vs vehicle-treated control, listed as dextromethorphan hydrobromide): reached significance |
| CC(C)(C)CCN1CCC2(CC1)CC2NC(=O)Cc1cc(C(F)(F)F)cc(C(F)(F)F)c1 (stereo not shown) [AFA-221] | 0.084 µM | – | 3.6 µM | 43 | ~30 µM | 357 | 31% at | 28.3% | – | – | – | – | – | – | potent and equal efficacy | potent and equal efficacy | hCav2.2 % at 3 μM ([2]; at 3 μM): 47% at; inhibition of chloroquine-induced itching scratching behavior ([10]; listed as EX-31): effective; inhibition of histamine-induced itching scratching behavior ([11]; listed as EX-31): effective |
| CC(C)(C)NC(=O)CN1CCC(CNC(=O)c2cc(F)cc(Cl)c2)CC1 [AFA-258, reference compound] | 0.195 µM | > 30 µM | > 100 µM | >513 | > 100 µM | >513 | – | 17.6% | 21.4 µM | > 100 µM | 0.2 µM | – | – | – | did not produce anti-itching effects | – | IC50 [12]: > 30 µM |
| CC(C)(C)NC(=O)CN1CCC2(CC1)C[C@H]2NC(=O)C12CC3CC(CC(C3)C1)C2 [AFA-309] | 0.141 µM | 15.6 µM | > 30 µM | >212 | > 30 µM | >212 | – | 4.2% | – | 25.8 µM | – | > 30 µM | – | – | – | preferentially inhibited histamine-induced itching | IC50 [12]: > 30 µM; hiPSC INa % at 3 μM ([6]; at 3 μM): 0% at |
| COCC(=O)O[C@]1(CCN(C)CCCc2nc3ccccc3[nH]2)CCc2cc(F)ccc2[C@@H]1C(C)C [mibefradil] | – | – | – | – | – | – | – | – | – | – | – | – | – | – | – | – | more potent inhibition of the T-type than of the L-type Ca2+ current or the voltage-gated Na+ current [13]: 3-10 times |
| CC(C)(C)NC(=O)CN1CCC2(CC1)CC2C(=O)Nc1cc(C(F)(F)F)cc(C(F)(F)F)c1 (stereo not shown) [AFA-322] | 0.138 µM | 3.09 µM | 14.3 µM | 103 | > 100 µM | >723 | – | 25.6% | 51.6 µM | 23.5 µM | 0.15 µM | 9.2 µM | 15.7% | trend of increasing the latency, but not reaching significant difference | – | preferentially inhibited histamine-induced itching | – |
| O=C(NC1CC12CCN(S(=O)(=O)c1ccc(C(F)(F)F)cc1)CC2)c1cc(C(F)(F)F)cc(C(F)(F)F)c1 (stereo not shown) [AFA-358] | 1.01 µM | 0.74 µM | > 30 µM | >30 | > 30 µM | >30 | 59% at | – | – | – | – | – | – | – | effective; also recorded: potent and equal efficacy | effective; also recorded: potent and equal efficacy | – |
